Experiment: Inhibition of HIV-1 HXB2 gp41 N-terminal heptad repeat-mediated fusion between infected HL2/3 cells to target TZM-bl cells after 6 hrs by luciferase reporter gene assay

H-MTWEAWDRAIAEYAARIEALIR-OH gave an IC50 of 59 nM.

For H-TTWEAWDRAIAEYAARIEALIR-OH, the IC50 was > 2250 nM.

For H-MTWEEWDKKIEEYTKKIEELIKKS-OH, the IC50 was 2.3 nM.

In the case of H-MTWEEWDKKIEEYTKKIEELI-OH, the IC50 is reported as 2.2 nM.

“H-MTWEAWDRAIAEYAARIEALIRAAQEQQEKNEAALREL-OH” gave an IC50 of 0.86 nM.

Substance “H-WEAWDRAIAEYAARIEALIRAAQEQQEKNEAALREL-OH” has an IC50 of 0.34 nM.

H-TTWEEWDKKIEEYTKKIEELIKKS-OH showed an IC50 of 18 nM.
